Assay results as given in patent US12357596B2, “Compounds for prevention and treatment of obesity and related disorders” (ABREXA PHARMACEUTICALS, INC., priority 2019, dated 2025).

Assay: 28-day once-daily oral gavage toxicity study with 14-day recovery (body weight, food consumption, clinical and anatomic pathology)
Assay type: in vivo
Conditions: for Decrease of group mean food consumption compared to Group 1 controls: Days 21 to 28
Experimental: J147 or vehicle was administered once daily to Sprague-Dawley rats via oral gavage for 28 consecutive days at a daily dose of 0, 30, 100 or 300 mg/kg. J174 was prepared in a vehicle formulation comprising 5% ethanol, 5% DMSO and 90% corn oil (v/v/v). Certified rodent diet and water was available ad libitum. Groups 1-4 contained 10 animals/sex/group. Groups 1 (control) and 4 (high dose) also included an additional 5 animals/sex/group for use as recovery animals. The recovery animals were maintained on study for a 14-day postdosing recovery period. Animals in Groups 1-4 were monitored for morbidity and mortality, clinical signs, detailed clinical observations, body weight, food consumption, ophthalmologic parameters, neurobehavioral assessment consisting of a Functional Observational Battery (FOB) and a motor activity test, hematology, coagulation, serum chemistry, and urinalysis parameters. Postmortem assessment included necropsy, measurement of selected organ weights, and microscopic evaluation of a standard set of tissues. Plasma samples for bioanalysis were collected on Days 1 and 28 from satellite toxicokinetic animals in Groups 5 through 8. Animals in these groups were euthanized following the last blood sampling and carcasses were discarded without examination. The study protocol is shown below in Table 1.

[1] = Group 2F: female rats, 30 mg/kg/day
[2] = Group 2M: male rats, 30 mg/kg/day
[3] = Group 3F: female rats, 100 mg/kg/day
[4] = Group 3M: male rats, 100 mg/kg/day
[5] = Group 4F: female rats, 300 mg/kg/day
[6] = Group 4M: male rats, 300 mg/kg/day
[7] = female rats, 30 mg/kg/day, Day 7 → 14
[8] = female rats, 30 mg/kg/day, Day 14 → 21
[9] = female rats, 30 mg/kg/day, Day 21 → 28
[10] = female rats, 30 mg/kg/day, Day −1 → 7
[11] = female rats, 100 mg/kg/day, Day 7 → 14
[12] = female rats, 100 mg/kg/day, Day 14 → 21
[13] = female rats, 100 mg/kg/day, Day 21 → 28
[14] = female rats, 100 mg/kg/day, Day 28
[15] = female rats, 100 mg/kg/day, Day −1 → 7
[16] = female rats, 300 mg/kg/day, Day 7 → 14
[17] = female rats, 300 mg/kg/day, Day 14 → 21
[18] = female rats, 300 mg/kg/day, Day 21 → 28
[19] = female rats, 300 mg/kg/day, Day 28
[20] = female rats, 300 mg/kg/day, Day −1 → 7
[21] = male rats, 30 mg/kg/day, Day 7 → 14

Compound: COc1cccc(/C=N/N(C(=O)C(F)(F)F)c2ccc(C)cc2C)c1 [J147]
- Terminal Body Weight % Diff from Control [1]: −2.4%
- Terminal Body Weight (mean) [1]: 238.10 g
- Terminal Body Weight % Diff from Control [2]: +1.4%
- Terminal Body Weight (mean) [2]: 443.50 g
- Terminal Body Weight % Diff from Control [3]: −7.6%
- Terminal Body Weight (mean) [3]: 225.43 g
- Terminal Body Weight % Diff from Control [4]: −5.69%
- Terminal Body Weight (mean) [4]: 412.50 g
- Terminal Body Weight % Diff from Control [5]: −14.23%
- Terminal Body Weight (mean) [5]: 209.24 g
- Terminal Body Weight % Diff from Control [6]: −17.91%
- Terminal Body Weight (mean) [6]: 359.05 g
- NOAEL at 28 days (both sexes, Sprague-Dawley, rat, in vivo, po): 30 mg/kg/day
- Increase in platelet counts (female rats, 30 mg/kg/day): 3.8%
- Mean Bodyweight (female rats, 30 mg/kg/day, Day 7): 220.64 g
- Food Mean Consumption [7]: 14.89 g/animal/day
- Mean Bodyweight Gain [7]: 13.06 g
- Mean Bodyweight (female rats, 30 mg/kg/day, Day 14): 233.70 g
- Food Mean Consumption [8]: 15.47 g/animal/day
- Mean Bodyweight Gain [8]: 9.45 g
- Mean Bodyweight (female rats, 30 mg/kg/day, Day 21): 243.15 g
- Food Mean Consumption [9]: 15.12 g/animal/day
- Mean Bodyweight Gain [9]: 5.08 g
- Mean Bodyweight (female rats, 30 mg/kg/day, Day 28): 248.23 g
- Mean Bodyweight (female rats, 30 mg/kg/day, Day −1 (pre-dose)): 203.02 g
- Food Mean Consumption [10]: 15.49 g/animal/day
- Mean Bodyweight Gain [10]: 17.62 g
- Mean Bodyweight Gain (female rats, 30 mg/kg/day, Day −1 → 28): 45.21 g
- Mean Bodyweight (female rats, 30 mg/kg/day, Day −3 (pre-dose)): 200.70 g
- Mean Bodyweight (female rats, 100 mg/kg/day, Day 7): 215.78 g
- Food Mean Consumption [11]: 13.85 d^4 g/animal/day
- Mean Bodyweight Gain [11]: 9.99 d^3 g
- Mean Bodyweight (female rats, 100 mg/kg/day, Day 14): 225.77 d^2 g
- Food Mean Consumption [12]: 14.70 g/animal/day
- Mean Bodyweight Gain [12]: 7.02 g
- Mean Bodyweight (female rats, 100 mg/kg/day, Day 21): 232.79 d^2 g
- Food Mean Consumption [13]: 13.98 g/animal/day
- Mean Bodyweight Gain [13]: 1.60 g
- Decrease of group mean body weight compared to Group 1 controls [14]: 6.9%
- Mean Bodyweight [14]: 234.39 g
- Mean Bodyweight (female rats, 100 mg/kg/day, Day −1 (pre-dose)): 206.05 g
- Food Mean Consumption [15]: 14.33 dd^3 g/animal/day
- Mean Bodyweight Gain [15]: 9.73 d^3 g
- Mean Bodyweight Gain (female rats, 100 mg/kg/day, Day −1 → 28): 28.34 dd^4 g
- Mean Bodyweight (female rats, 100 mg/kg/day, Day −3 (pre-dose)): 201.20 g
- Decrease of group mean food consumption compared to Group 1 controls (female rats, 100 mg/kg/day): 8.6%
- Food Mean Consumption (female rats, 300 mg/kg/day for 28 days, Day 28 → 35 (recovery)): 22.30 d^4 g/animal/day
- Mean Bodyweight Gain (female rats, 300 mg/kg/day for 28 days, Day 28 → 42 (recovery)): 32.82 g
- Mean Bodyweight (female rats, 300 mg/kg/day for 28 days, Day 35 (recovery)): 249.62 g
- Food Mean Consumption (female rats, 300 mg/kg/day for 28 days, Day 35 → 42 (recovery)): 20.22 g/animal/day
- Mean Bodyweight (female rats, 300 mg/kg/day for 28 days, Day 42 (recovery)): 258.24 g
- Mean Bodyweight (female rats, 300 mg/kg/day, Day 7): 214.74 g
- Food Mean Consumption [16]: 13.81 dd^3 g/animal/day
- Mean Bodyweight Gain [16]: 8.25 dd^4 g
- Mean Bodyweight (female rats, 300 mg/kg/day, Day 14): 222.99 dd^3 g
- Food Mean Consumption [17]: 14.73 g/animal/day
- Mean Bodyweight Gain [17]: 5.03 dd^4 g
- Mean Bodyweight (female rats, 300 mg/kg/day, Day 21): 228.03 dd^3 g
- Food Mean Consumption [18]: 12.91 d^4 g/animal/day
- Mean Bodyweight Gain [18]: −7.49 d^3 g
- Decrease of group mean body weight compared to Group 1 controls [19]: 12.4%
- Mean Bodyweight [19]: 220.53 dd^3 g
- Mean Bodyweight (female rats, 300 mg/kg/day, Day −1 (pre-dose)): 207.85 g
- Food Mean Consumption [20]: 13.75 dd^3 g/animal/day
- Mean Bodyweight Gain [20]: 6.89 dd^4 g
- Mean Bodyweight Gain (female rats, 300 mg/kg/day, Day −1 → 28): 12.68 dd^4 g
- Mean Bodyweight (female rats, 300 mg/kg/day, Day −3 (pre-dose)): 200.70 g
- Decrease of group mean food consumption compared to Group 1 controls (female rats, 300 mg/kg/day): 15.6%
- Group mean weight gain from Day −1 to 28 (female rats, Group 2 (30 mg/kg/day)): 45 grams
- Group mean weight gain from Day −1 to 28 (female rats, Group 3 (100 mg/kg/day)): 28 grams
- Group mean weight gain from Day −1 to 28 (female rats, Group 4 (300 mg/kg/day)): 13 grams
- Mean Bodyweight (male rats, 30 mg/kg/day, Day 7): 338.91 g
- Mean Bodyweight Gain [21]: 52.38 g
- Mean Food Consumption [21]: 24.85
- Mean Bodyweight (male rats, 30 mg/kg/day, Day 14): 391.29 g
